Laboratory results published in the supplement of paper PMC10307832.

Tests used:
Assay in all cases: relative viability (nuclei count vs DMSO), 5 days (fraction); higher = more cells survive
[1] = compound: C[C@]12O[C@H](C[C@]1(O)CO)n1c3ccccc3c3c4c(c5c6ccccc6n2c5c31)CNC4=O [Lestaurtinib] + Nc1ncn([C@H]2C[C@H](O)[C@@H](CO)O2)c(=O)n1 [Decitabine] (partner 2 µM)
In short: (§1)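 Lung cancer cell lines in 1536-well plates got either a single drug or a fixed anchor-drug dose together with five library-drug doses (not always all listed) in √10 steps, by pin tool, on the day after seeding. Nuclei were counted after 5 days, and relative viability is the treated-to-vehicle ratio of nuclei counts. Values are medians of duplicate plates.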

[2] = compound: C1/C(=C\C2=CC=CS2)/C(=O)/C(=C/C3=CC=CS3)/C1 + Nc1nc2[nH]cc(CCc3ccc(C(=O)N[C@@H](CCC(=O)O)C(=O)O)cc3)c2c(=O)[nH]1 [Pemetrexed] (partner 0.2 µM)
In short: as §1

[3] = compound: C[C@]12O[C@H](C[C@]1(O)CO)n1c3ccccc3c3c4c(c5c6ccccc6n2c5c31)CNC4=O [Lestaurtinib] + Cc1nc(NC(=O)N2CCC[C@H]2C(N)=O)sc1-c1ccnc(C(C)(C)C(F)(F)F)c1 [Alpelisib] (partner 2 µM)
In short: as §1

[4] = compound: C1/C(=C\C2=CC=CS2)/C(=O)/C(=C/C3=CC=CS3)/C1 + CC(=O)Nc1cccc(-n2c(=O)n(C3CC3)c(=O)c3c(Nc4ccc(I)cc4F)n(C)c(=O)c(C)c32)c1 [Trametinib] (partner 0.02 µM)
In short: as §1

Cell Line | relative viability ([1]; first compound 0.005 µM) | relative viability ([1]; first compound 0.01581 µM) | relative viability ([1]; first compound 0.05 µM) | relative viability ([1]; first compound 0.1581 µM) | relative viability ([1]; first compound 0.5 µM) | relative viability ([2]; first compound 0.2 µM) | relative viability ([2]; first compound 0.6325 µM) | relative viability ([2]; first compound 2 µM) | relative viability ([2]; first compound 6.325 µM) | relative viability ([2]; first compound 20 µM) | relative viability ([3]; first compound 0.005 µM) | relative viability ([3]; first compound 0.01581 µM) | relative viability ([3]; first compound 0.05 µM) | relative viability ([3]; first compound 0.1581 µM) | relative viability ([3]; first compound 0.5 µM) | relative viability ([4]; first compound 0.2 µM) | relative viability ([4]; first compound 0.6325 µM) | relative viability ([4]; first compound 2 µM) | relative viability ([4]; first compound 6.325 µM) | relative viability ([4]; first compound 20 µM)
NCI-H1355 | 0.389 | 0.349 | 0.329 | 0.311 | 0.344 | 1.06 | 0.922 | 1 | 0.96 | 0.971 | 0.849 | 0.885 | 0.682 | 0.392 | 0.303 | 0.42 | 0.43 | 0.457 | 0.341 | 0.407
EKVX | 0.518 |  | 0.357 | 0.396 | 0.342 | 0.394 | 0.347 | 0.453 |  | 0.389 | 0.892 | 1.03 | 0.938 | 0.743 | 0.519 | 0.415 | 0.307 | 0.368 |  | 0.295
NCI-H441 | 0.255 | 0.124 | 0.233 | 0.247 | 0.253 | 0.273 | 0.261 | 0.264 | 0.27 | 0.264 | 0.584 | 0.687 | 0.416 | 0.421 | 0.289 | 0.607 | 0.429 | 0.552 | 0.446 | 0.418
NCI-H1975 | 0.395 | 0.39 | 0.356 | 0.36 | 0.338 | 0.321 | 0.298 | 0.32 | 0.269 | 0.301 | 0.658 | 0.644 | 0.372 | 0.347 | 0.212 | 0.345 | 0.326 | 0.282 | 0.321 | 0.362
HCC-78 | 0.748 | 0.884 | 0.712 | 0.662 | 0.441 | 0.923 | 0.817 | 0.862 | 0.921 | 0.862 | 0.349 | 0.328 | 0.334 | 0.246 | 0.226 | 0.762 | 0.438 | 0.744 | 0.805 | 0.666
NCI-H2085 | 0.55 | 0.583 | 0.664 | 0.597 | 0.551 | 0.963 | 0.909 | 0.96 | 0.857 | 0.939 | 1.05 | 1.11 | 1.06 | 1.01 | 0.843 | 0.516 | 0.513 | 0.545 | 0.635 | 0.538
H3255 | 0.792 | 0.565 | 0.562 | 0.512 | 0.366 | 0.573 | 0.594 | 0.61 | 0.528 | 0.602 | 0.686 | 0.739 | 0.541 | 0.385 | 0.296 | 0.644 | 0.583 | 0.596 | 0.446 | 0.666
NCI-H2087 | 0.289 | 0.338 | 0.258 | 0.207 | 0.206 | 0.635 | 0.7 | 0.621 | 0.529 | 0.639 | 1.15 | 1.08 | 0.83 | 0.783 | 0.325 | 0.201 | 0.17 | 0.18 | 0.157 | 0.294
LC-2-ad | 0.912 | 0.829 | 0.755 | 0.654 | 0.476 | 0.272 | 0.298 | 0.268 | 0.25 | 0.287 | 0.961 | 0.829 | 0.354 | 0.227 | 0.139 | 0.9 | 0.94 | 0.893 | 0.781 | 0.897
PC-3 [JPC-3] | 0.814 | 0.829 | 0.915 | 0.816 | 0.733 |  | 1.15 | 0.982 | 1.04 | 1.26 | 1.03 | 1.1 | 0.985 | 0.913 | 0.65 |  | 0.731 | 0.753 | 0.613 | 0.759
EBC-1 |  |  |  |  |  |  |  |  |  |  | 0.851 | 0.948 | 0.658 | 0.624 | 0.298 |  |  |  |  | 
HCC-15 | 0.747 | 0.843 | 0.683 | 0.385 | 0.191 | 0.221 | 0.203 | 0.218 | 0.214 | 0.217 | 1.02 | 1.06 | 0.819 | 0.583 | 0.161 | 0.397 | 0.376 | 0.417 | 0.376 | 0.374
NCI-H1563 |  |  |  |  |  | 0.73 | 0.801 | 0.912 | 0.798 | 0.763 | 0.88 | 0.954 | 0.944 | 0.865 | 0.813 |  |  |  |  | 
COR-L 105 | 0.687 | 0.663 | 0.582 | 0.505 | 0.385 | 1.37 | 1.04 | 1.26 | 1.06 | 1.13 | 1.07 | 0.926 | 0.773 | 0.583 | 0.248 | 0.421 | 0.463 | 0.447 | 0.402 | 0.451
NCI-H520 | 0.62 | 0.59 | 0.502 | 0.327 | 0.247 | 0.644 | 0.623 | 0.727 |  | 0.65 | 1.05 | 0.993 | 0.764 | 0.481 | 0.274 | 0.629 | 0.789 | 0.665 |  | 0.677
LU99A | 0.711 | 0.84 | 0.572 | 0.366 | 0.276 | 0.217 | 0.185 | 0.172 | 0.17 | 0.164 | 0.413 | 0.488 | 0.233 | 0.283 | 0.192 | 0.626 | 0.558 | 0.555 | 0.495 | 0.497
NCI-H1666 | 0.769 | 0.807 | 0.944 | 0.912 | 0.704 | 0.82 | 0.84 | 0.877 | 0.791 | 0.813 | 0.915 | 1.05 | 1.02 | 0.493 | 0.442 | 0.855 | 0.86 | 0.791 | 0.861 | 0.77
